Series [1] in a line: Single dose oral bioavailability and pharmacokinetic study in Sprague Dawley rats. It is filed as in vivo, Sprague Dawley rat. The following applies: for AUC(0-t) / Cmax / Tmax / half-life: Sprague Dawley (Crl:CD(SD)BR), rat, plasma, mean, after single oral 30 mg/kg of Example 1, label = analyte; for half-life: read-out: t½ (converted); for Course of plasma concentration over time: rats, after oral Example 1, 30 mg/kg, over 8 hours. As for the experimental part:
Animals are Used for the Study:
• Strain/Species: Sprague Dawley (Crl:CD®(SD)BR) Rat • Sex: Male and Female • Age at Receipt: 7-8 weeks • Weight Range: 225-300 g • Number of Animals on Study: 3 Males and 3 Females Preparation of Dosage Formulation
The suspension is prepared by placing the required amount of methylcellulose in deionized water in a glass container. The suspension are kept stirring with a magnetic stirrer until completion of daily dosing. The dose suspensions are prepared on the day of dosing for each test article group.
A total of 3 male and 3 female rats are dosed at 30 mg/kg. Blood samples are collected at 0.30 min, 1, 4 and 8 h after dosing. Plasma samples are analyzed to determine plasma concentrations of the Compound of Example 1, the Compound of Formula Q wherein X is —N(CH3)— and Y is —C(═O), and the Compound of Formula Q wherein X is —N(H)— and Y is —C(═O). The pharmacokinetic profile is determined using WinNonlin.
Animals are anesthetized with isoflurane, and whole blood (˜0.5 mL/time point) is collected from the orbital sinus utilizing a glass capillary tube on the first day of treatment at the following times: 0.30 min, 1, 4 and 8 h after dosing. Whole blood (˜0.5 mL) is collected into chilled plastic tubes containing sodium heparin as supplied by the manufacturer. The blood collection tubes are mixed several times by manual inversion or gentle vortexing and stored on wet ice until centrifugation. The blood is centrifuged (˜2700 g, ˜10 min, ˜5° C.). Plasma is transferred with disposable plastic pipettes to plastic vials and stored at approximately −70° C. until analyzed.

The nature of series [2]: Hydrolysis of Example 4 in EDTA-containing rat whole blood. The conditions noted are these: for Concentration: Example 4 incubated in rat whole blood at 37 degrees, HPLC-MS. It is filed as in vitro ADME.
For series [3], the target named is SERT (Homo sapiens, UniProt P31645). Briefly: biochemical.
SERT, sequence (P31645 whole entry): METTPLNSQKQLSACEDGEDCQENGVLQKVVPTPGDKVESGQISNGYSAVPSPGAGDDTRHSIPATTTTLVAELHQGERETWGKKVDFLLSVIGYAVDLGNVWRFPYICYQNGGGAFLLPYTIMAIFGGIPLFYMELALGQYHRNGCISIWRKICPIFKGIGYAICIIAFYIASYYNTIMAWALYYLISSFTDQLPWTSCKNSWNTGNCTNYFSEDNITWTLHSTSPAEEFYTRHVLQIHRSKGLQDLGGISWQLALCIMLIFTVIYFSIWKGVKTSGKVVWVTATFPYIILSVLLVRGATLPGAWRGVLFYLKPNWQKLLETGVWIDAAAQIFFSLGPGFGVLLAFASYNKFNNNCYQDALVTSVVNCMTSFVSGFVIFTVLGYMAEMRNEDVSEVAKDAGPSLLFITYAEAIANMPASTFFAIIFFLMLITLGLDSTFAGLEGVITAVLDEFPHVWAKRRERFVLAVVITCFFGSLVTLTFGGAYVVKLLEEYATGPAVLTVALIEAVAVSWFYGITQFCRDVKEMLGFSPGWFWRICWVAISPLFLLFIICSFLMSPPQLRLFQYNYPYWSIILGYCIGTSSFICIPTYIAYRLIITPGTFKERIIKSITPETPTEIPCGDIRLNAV
Series [4] concerns the target T1, serotonin reuptake transport (SERT) (Homo sapiens, UniProt P31645).
T1 construct: endogenous in cells; host or cells: human platelets
Put plainly: Inhibition of serotonin uptake in a human platelet assay using tritiated serotonin. It is filed as cell-based.

In series [5] the test system is dopamine receptors. Briefly: Step-down latency test. It counts as in vivo. The following applies: mice; oral; tests at 120, 180, 240 and 360 minutes; FIG. 2. As for the experimental part:
Drugs that antagonize dopamine receptors in the brain slow motor behavior and can induce a cataleptic state. This activity can be assessed in mice using a simple step down latency test. In this test, mice are held by the tail, and the rodents forepaws are placed on a rod and its hindpaws placed on the bench top. The time for forepaws to step down from the rod is then measured. A maximum of 2 min is allowed at which time the animal is taken away from the rod and returned to the home cage. The compound of Example 1 or haloperidol (used as a positive control) is administered orally 120 minutes before the first test. Step down latency tests are conducted at 120, 180, 240, and 360 minutes after the administration of the compound of Example 1 or haloperidol. After each test mice are returned to their cages. The results are show in FIG. 2.

Series [6] deals with 5-HT2 receptor. Briefly: DOI-induced head twitch test in mice. The conditions noted are these: oral. It counts as in vivo. The text has this:
When administered to mice, it produces a behavioral profile associated with frequent head twitches. The frequency of these head twitches during a predetermined period of time can be taken as an estimate of 5-HT2 receptor agonism in the brain. Conversely, this behavioral assay can be used to determine 5-HT2 receptor antagonism in the brain by administering the DOI with or without an antagonist and recording the reduction in DOI-induced head twitches after the administration of the antagonist.
The method of Darmani et al., Pharmacol Biochem Behav. (1990) 36:901-906 (the contents of which are incorporated by reference in their entirety) is used with some modifications. (±)-DOI HCl is injected subcutaneously and the mice are immediately placed in a conventional plastic cage. The number of head twitches is counted during 6 min, beginning 1 min after DOI administration. The compound of Example 1 is administered orally 0.5 hr before the injection of DOI.

Results on four compounds are retold here after patent publication US9371324B2, “Substituted pyrido[3′,4′:4,5]pyrrolo[1,2,3-de]quinoxalines for the treatment of nervous system disorders” (INTRA-CELLULAR THERAPIES, INC., priority 2010, dated 2016).

Like-named read-outs stand apart in the source and are kept apart here.

What is called AUC(0-t) is the area under the concentration-time curve up to a stated or last time point. A higher AUC(0-t) goes with high exposure. The Cmax is the maximum level reached in the sampled fluid or tissue. For orientation: Tmax means the time from dosing to the highest level. As a reminder, the Ki is a dissociation constant, usually derived from enzyme kinetics or from competition with a known ligand.

T1 sequence (P31645 whole entry): as above

Turning to `CN1CCN2c3c(cccc31)[C@@H]1CN(CCCC(=O)c3ccc(F)cc3)CC[C@@H]12`, in series [1] (female rats), the area under the curve AUC(0-t) was 71 ng·h/mL, the concentration peaked (Cmax) at 11.8 ng/mL, the time to peak (Tmax) is 1 h and the half-life was 23.4 h. Also, in series [1] (male rats), the AUC(0-t) came to 54.5 ng·h/mL, the Cmax is 4.85 ng/mL, the Tmax is 0.75 h and the half-life is 12.1 h. Moreover, the “Course of plasma concentration over time” value in series [1] is on record as “maintained over 8 hours”.

With `O=C(CCCN1CC[C@H]2[C@@H](C1)c1cccc3c1N2CCN3)c1ccc(F)cc1`, in series [1] (female rats), the area under the curve AUC(0-t) is 89.7 ng·h/mL, the maximum concentration (Cmax) was determined as 12.8 ng/mL and the Tmax worked out at 5.33 h. Moreover, in series [1] (male rats), the area under the curve AUC(0-t) was found to be 37.4 ng·h/mL, the concentration peaked (Cmax) at 5.84 ng/mL, the Tmax amounted to 1 h and the half-life is 17.8 h. Also, the “Course of plasma concentration over time” value in series [1] is “maintained over 8 hours”.

`CN1CCN2c3c(cccc31)[C@@H]1CN(CCCC(O)c3ccc(F)cc3)CC[C@@H]12` (stereo partly shown) [Example 1]: the Concentration in series [2] (5 min) came to 8.43 µM; in series [2] (10 min), 12.02 µM; in series [2] (15 min) it was 13.42 µM; in series [2] (30 min) it was 19.21 µM; in series [2] (60 min), 24.66 µM; in series [2] (90 min) it was 33.31 µM. Also, the inhibition constant (Ki) was found to be 0.071 µM in series [3] and 1.5 µM in series [4]. The SERT inhibitory activity result in series [4] (imipramine as reference, compared with the corresponding keto compound of Formula Q) was “potent SERT inhibitory activity”. For the same compound, the AUC(0-t) in series [1] (female rats) was 767 ng·h/mL; in series [1] (male rats) it was 421 ng·h/mL. For the same compound, the Cmax in series [1] (female rats) is 144 ng/mL; in series [1] (male rats), 91.6 ng/mL. Besides, the Tmax is 3.33 h in series [1] (female rats) and 0.83 h in series [1] (male rats). For the same compound, the half-life in series [1] (female rats) was 11.6 h; in series [1] (male rats), 5.83 h. Moreover, the “Course of plasma concentration over time” value in series [1] is “generally decreases over time”. Moreover, in series [5], the “Effect on step down latency” value is “significantly and dose dependently increased step down latency”. Further, in series [6] (0.5 hr before DOI, twitches counted during 6 min), the “IC50 for reducing DOI-induced head twitches” value is 0.31 mg/kg. Moreover, the “Effect on DOI-induced head twitches” value in series [6] (before DOI, FIG. 1) is “significantly and dose dependently reduced head twitches”.

Take `CCCC(=O)OC(CCCN1CC[C@H]2[C@@H](C1)c1cccc3c1N2CCN3C)c1ccc(F)cc1` (stereo partly shown) [Example 4]: the Concentration in series [2] (0 min) came out at 52.84 µM; in series [2] (5 min) it was 24.92 µM; in series [2] (10 min), 18.51 µM; in series [2] (15 min) it was 9.21 µM; in series [2] (30 min), 7.06 µM; in series [2] (60 min) it was 2.74 µM. The compound also returned a Concentration in series [2] (90 min) of 1.75 µM. In addition, in series [2] (rat whole blood, during 90 minutes), the “Cleavage of the ester in blood” value is “steadily cleaved back to the compound of Example 1”.
